Results taken from patent US20250179059A1 (The Regents of the University of California, priority 2021, published 2025).

Target: T1, human BRD4 bromodomain II (Homo sapiens, UniProt O60885)
T1 construct: human BRD4 bromodomain II [based on Genbank NM_058243, residues 349-460]; host or cells: E. coli
Test: Bromodomain binding assay (AlphaScreen), BRD4 BDII
Details: AlphaScreen assay, Table C2; read-out: BRD4 BDII IC50
In short: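 AlphaScreen competition: His6-BRD4 BDI (aa 44-170) or BDII (aa 349-460) vs biotin-H4(1-21) K5/K8/K12/K16Ac peptide; Ni-chelate acceptor/streptavidin donor beads. HEPES pH 7.5, NaCl, CHAPS, BSA, 1% DMSO; RT. 10-pt 3-fold titration, % peptide binding fitted → IC50.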

| SMILES | IC50 [nM] |
| --- | --- |
| CC(=O)Nc1ccc(-c2cccc(-c3cccc(-c4nn[nH]n4)c3)c2O)cc1F [Example 227, N-(3-fluoro-2′-hydroxy-3″-(2H-tetrazol-5-yl)-[1,1′:3′,1″-terphenyl]-4-yl)acetamide] | > 100 |
| CC(=O)Nc1ccc(-c2cccc(-c3cccc(C)c3)c2O)cc1F [Example 55, N-(3-fluoro-2′-hydroxy-3″-methyl-[1,1′:3′,1″-terphenyl]-4-yl)acetamide] | > 100 |
| CC(=O)Nc1ccc(-c2cccc(-c3ccnc(C(N)=O)c3)c2O)cc1F [Example 211, 4-(4′-acetamido-3′-fluoro-2-hydroxy-[1,1′-biphenyl]-3-yl)picolinamide] | > 100 |
| CC(=O)Nc1ccc(-c2cc(F)cc(-c3cnn(C4CCN(C)CC4)c3)c2O)cc1F [Example 84, N-(3,5′-Difluoro-2′-hydroxy-3′-(1-(1-methylpiperidin-4-yl)-1H-pyrazol-4-yl)-[1,1′-biphenyl]-4-yl)acetamide] | > 100 |
| CC(=O)Nc1ccc(-c2cccc(-c3cc(F)cc(N4CCNCC4)c3)c2O)cc1F [Example 178, N-(3,3″-difluoro-2′-hydroxy-5″-(piperazin-1-yl)-[1,1′:3′,1″-terphenyl]-4-yl)acetamide] | 10 to 100 |
| COc1cc(-c2cccc(-c3cc(Cl)c(N4CCCC4=O)c(Cl)c3)c2O)ccc1NC(C)=O [Example 165, N-(3″,5″-dichloro-2′-hydroxy-3-methoxy-4″-(2-oxopyrrolidin-1-yl)-[1,1′:3′,1″-terphenyl]-4-yl)acetamide] | > 100 |
| COc1cc(-c2cccc(-c3ccc(NC(C)=O)cc3)c2O)ccc1NC(C)=O [Example 127, N,N′-(2′-Hydroxy-3-methoxy-[1,1′:3′,1″-terphenyl]-4,4″-diyl)diacetamide] | 10 to 100 |
| CC(=O)Nc1ccc(-c2cccc(-c3cc(N4CCNCC4)no3)c2O)cc1OC(F)(F)F [Example 25, N-(2′-hydroxy-3′-(3-(piperazin-1-yl)isoxazol-5-yl)-3-(trifluoromethoxy)-[1,1′-biphenyl]-4-yl)acetamide] | > 100 |
| CC(=O)Nc1ccc(-c2cccc(-c3cccc(-c4ccnc(N)c4)c3)c2O)cc1F [Example 204, N-(3″-(2-aminopyridin-4-yl)-3-fluoro-2′-hydroxy-[1,1′:3′,1″-terphenyl]-4-yl)acetamide] | 1 to 10 |
| CC(=O)Nc1ccc(-c2cccc(-c3cccc(N4CCC5(CC4)CNC5)c3)c2O)cc1F [Example 196, N-(3-fluoro-2′-hydroxy-3″-(2,7-diazaspiro[3.5]nonan-7-yl)-[1,1′:3′,1″-terphenyl]-4-yl)acetamide] | 10 to 100 |
| CC(=O)Nc1ccc(-c2cccc(-c3ccncc3)c2O)cc1F [Example 67, N-(3-Fluoro-2′-hydroxy-3′-(pyridin-4-yl)-[1,1′-biphenyl]-4-yl)acetamide] | > 100 |
| CC(=O)Nc1c(F)cc(-c2cccc(-c3cccc(N4CCNCC4)c3)c2O)cc1OCC1CC1 [Example 184, N-(3-(cyclopropylmethoxy)-5-fluoro-2′-hydroxy-3″-(piperazin-1-yl)-[1,1′:3′,1″-terphenyl]-4-yl)acetamide] | 10 to 100 |
| CC(=O)Nc1ccc(-c2cccc(-c3cccc(Oc4ccccc4)c3)c2O)cc1F [Example 91, N-(3-Fluoro-2′-hydroxy-3″-phenoxy-[1,1′:3′,1″-terphenyl]-4-yl)acetamide] | > 100 |
| CC(=O)Nc1ccc(-c2cccc(-c3cnc(-c4ccccc4)o3)c2O)cc1F [Example 85, N-(3-Fluoro-2′-hydroxy-3′-(2-phenyloxazol-5-yl)-[1,1′-biphenyl]-4-yl)acetamide] | > 100 |
| CC(=O)Nc1ccc(-c2cccc(-c3ccc4[nH]ccc4c3)c2O)cc1F [Example 123, N-(3-Fluoro-2′-hydroxy-3′-(1H-indol-5-yl)-[1,1′-biphenyl]-4-yl)acetamide] | > 100 |
| CC(=O)Nc1ccc(-c2cccc(-c3cc(N4CCNCC4)no3)c2O)cc1Oc1ccccc1 [Example 68, N-(2′-Hydroxy-3-phenoxy-3′-(3-(piperazin-1-yl)isoxazol-5-yl)-[1,1′-biphenyl]-4-yl)acetamide 2,2,2-trifluoroacetate] | 10 to 100 |
| CC(=O)Nc1ccc(-c2cccc(-c3cnn(-c4ccccc4)c3)c2O)cc1 [Example 14, N-(2′-Hydroxy-3′-(1-phenyl-1H-pyrazol-4-yl)-[1,1′-biphenyl]-4-yl)acetamide] | > 100 |
| O=C1CCCN1c1c(F)cc(-c2cccc(-c3cc(N4CCNCC4)no3)c2O)cc1F [Example 140, 1-(3,5-difluoro-2′-hydroxy-3′-(3-(piperazin-1-yl)isoxazol-5-yl)-[1,1′-biphenyl]-4-yl)pyrrolidin-2-one] | 10 to 100 |
| CC(=O)Nc1ccc(-c2cccc(-c3cnn(-c4ccccc4)c3)c2O)cc1F [Example 35, N-(3-Fluoro-2′-hydroxy-3′-(1-phenyl-1H-pyrazol-4-yl)-[1,1′-biphenyl]-4-yl) acetamide] | > 100 |
| CC(=O)Nc1ccc(-c2cccc(-c3cc(N4CCNCC4)no3)c2O)cc1OC1CCC1 [Example 24, N-(3-cyclobutoxy-2′-hydroxy-3′-(3-(piperazin-1-yl)isoxazol-5-yl)-[1,1′-biphenyl]-4-yl)acetamide 2,2,2-trifluoroacetate] | 10 to 100 |
| CC(=O)Nc1ccc(-c2cccc(-c3ccc4c(ccn4C)c3)c2O)cc1F [Example 130, N-(3-Fluoro-2′-hydroxy-3′-(1-methyl-1H-indol-5-yl)-[1,1′-biphenyl]-4-yl)acetamide] | > 100 |
| CC(=O)Nc1ccc(-c2cccc(-c3ccc(NC(C)=O)nc3)c2O)cn1 [Example 40, N,N′-(5,5′-(2-Hydroxy-1,3-phenylene)bis(pyridine-5,2-diyl))diacetamide] | > 100 |
| CC(=O)Nc1ccc(-c2cccc(-c3ccc(N4CCOCC4)cc3)c2O)cc1F [Example 94, N-(3-Fluoro-2′-hydroxy-4″-morpholino-[1,1′:3′,1″-terphenyl]-4-yl)acetamide] | > 100 |
| CC(=O)Nc1ccc(-c2cccc(-c3cccc(N4CCCCC4)c3)c2O)cc1F [Example 166, N-(3-fluoro-2′-hydroxy-3″-(piperidin-1-yl)-[1,1′:3′,1″-terphenyl]-4-yl)acetamide] | > 100 |
| CC(=O)Nc1c(Cl)cc(-c2cccc(-c3cc(N4CCNCC4)no3)c2O)cc1Cl [Example 154, N-(3,5-dichloro-2′-hydroxy-3′-(3-(piperazin-1-yl)isoxazol-5-yl)-[1,1′-biphenyl]-4-yl)acetamide] | 10 to 100 |
| CC(=O)Nc1ccc(-c2cccc(-c3ccnc(N4CCC(CO)CC4)c3)c2O)cc1F [Example 198, N-(3-fluoro-2′-hydroxy-3′-(2-(4-(hydroxymethyl)piperidin-1-yl)pyridin-4-yl)-[1,1′-biphenyl]-4-yl)acetamide] | 1 to 10 |
| CC(=O)Nc1ccc(-c2cccc(-c3nnc(N4CCNCC4)[nH]3)c2O)cc1F [Example 148, N-(3-fluoro-2′-hydroxy-3′-(5-(piperazin-1-yl)-4H-1,2,4-triazol-3-yl)-[1,1′-biphenyl]-4-yl)acetamide] | > 100 |
| CC(=O)Nc1ccc(-c2cccc(-c3cccc(-c4nc[nH]n4)c3)c2O)cc1F [Example 208, N-(3-fluoro-2′-hydroxy-3″-(1H-1,2,4-triazol-3-yl)-[1,1′:3′,1″-terphenyl]-4-yl)acetamide] | > 100 |
| CC(=O)Nc1ccc(-c2cccc(-c3ccc4c(c3)CCCO4)c2O)cc1F [Example 136, N-(3′-(chroman-6-yl)-3-fluoro-2′-hydroxy-[1,1′-biphenyl]-4-yl)acetamide] | > 100 |
